Assay results: ChEMBL document CHEMBL2157975 (Bioorg Med Chem Lett, 2012); call rule not given here

Experiments:
Apelin receptor = target: T1, Apelin receptor (Homo sapiens, UniProt P35414); assay: Antagonist activity at APJ receptor expressed in CHOK1 cells assessed as inhibition of apelin13-induced beta-arrestin recruitment after 90 mins by luminescence assay; type: functional, cell-based, CHO-K1
T1 sequence (P35414 whole entry): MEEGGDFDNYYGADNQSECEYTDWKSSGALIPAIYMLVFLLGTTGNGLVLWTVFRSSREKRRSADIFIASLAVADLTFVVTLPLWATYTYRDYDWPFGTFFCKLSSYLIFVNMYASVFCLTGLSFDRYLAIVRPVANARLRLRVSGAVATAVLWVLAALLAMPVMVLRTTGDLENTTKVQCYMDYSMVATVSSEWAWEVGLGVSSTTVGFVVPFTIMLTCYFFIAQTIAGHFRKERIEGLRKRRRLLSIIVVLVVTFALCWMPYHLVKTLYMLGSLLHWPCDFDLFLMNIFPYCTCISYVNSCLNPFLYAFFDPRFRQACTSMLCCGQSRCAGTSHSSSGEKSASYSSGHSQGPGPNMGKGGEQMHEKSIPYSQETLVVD

[1] = target: T2, Type-1 angiotensin II receptor (Homo sapiens, UniProt P30556); assay: Inhibition of AT1 receptor
T2 sequence (P30556 whole entry): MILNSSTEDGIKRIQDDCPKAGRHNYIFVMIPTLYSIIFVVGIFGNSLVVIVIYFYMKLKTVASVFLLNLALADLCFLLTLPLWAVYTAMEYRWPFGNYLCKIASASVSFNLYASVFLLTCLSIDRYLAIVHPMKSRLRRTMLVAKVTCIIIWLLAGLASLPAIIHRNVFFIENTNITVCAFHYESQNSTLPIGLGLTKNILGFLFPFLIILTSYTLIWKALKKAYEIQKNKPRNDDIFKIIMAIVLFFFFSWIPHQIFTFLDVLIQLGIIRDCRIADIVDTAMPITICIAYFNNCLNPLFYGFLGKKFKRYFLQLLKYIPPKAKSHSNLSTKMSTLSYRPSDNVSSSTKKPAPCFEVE

[2] = Selectivity ratio of IC50 for AT1 receptor to IC50 for APJ receptor (unknown receptor)
[3] = Drug degradation in aqueous acetonitrile solution assessed as ester bond hydrolysis; type: physicochemical; details: buffer

Compound	IC50 (Apelin receptor) [µM]	IC50 [1] [µM]	Ratio IC50 [2]	Drug degradation [3]
Cc1ccnc(SCc2cc(=O)c(OCc3ccccc3)co2)n1	> 79	> 79		
O=c1cc(CSc2ccc(F)cc2)occ1O	> 79	> 79		
Cc1cc(C)nc(SCc2cc(=O)c(OS(=O)(=O)c3ccccc3)co2)n1	> 79	> 79		
Cc1ccnc(SCc2cc(=O)c(O)co2)n1	> 79	> 79		
Cc1ccnc(SCc2cc(=O)c(OC(=O)c3ccccc3Cl)co2)n1	> 59	> 79		
CC(=O)Oc1coc(CSc2nccc(C)n2)cc1=O	> 79	> 79		
Cc1ccnc(SCc2cc(=O)c(OC(=O)c3ccccc3)co2)n1	> 79	> 79		
Cc1ccnc(SCc2cc(=O)c(OC(=O)c3cc([N+](=O)[O-])ccc3Cl)co2)n1		> 79		
Cc1ccnc(SCc2cc(=O)c(OC(=O)c3ccc(C(F)(F)F)cc3)co2)n1		> 79		
Cc1ccnc(SCc2cc(=O)c(OC(=O)c3ccsc3)co2)n1	> 79	> 79		
Cc1ccnc(SCc2cc(=O)c(OC(=O)c3ccc(C#N)cc3)co2)n1		> 79	> 7	
O=c1cc(CSc2ncccn2)occ1O	> 79	> 79		
Cc1ccnc(SCc2cc(=O)c(OC(=O)c3cccc(Cl)c3)co2)n1	> 79	> 79		
Cc1ccnc(SCc2cc(=O)c(NC(=O)c3ccc([N+](=O)[O-])cc3)co2)n1	> 79	> 79		
O=C(Oc1coc(CSc2ccc(Cl)cc2)cc1=O)c1ccc(Cl)c([N+](=O)[O-])c1	4.53	> 79	> 17	
Cc1ccnc(SCc2cc(=O)c(OC(=O)c3cc(Cl)ccc3[N+](=O)[O-])co2)n1		> 79		
Cc1ccnc(SCc2cc(=O)c(OC(=O)c3ccccc3C)co2)n1	> 79	> 79		
Cc1cc(C)nc(SCc2cc(=O)c(OS(=O)(=O)c3ccc([N+](=O)[O-])cc3)co2)n1	> 79	> 79		
O=C(Oc1coc(CSc2ccc(OC(F)(F)F)cc2)cc1=O)c1ccc(Cl)c([N+](=O)[O-])c1	24	> 79	> 3	
Cc1ccnc(SCc2cc(=O)c(OC(=O)c3ccc([N+](=O)[O-])o3)co2)n1	> 79	> 79		

Compound	IC50 (Apelin receptor) [µM]	IC50 [1] [µM]	Ratio IC50 [2]	Drug degradation [3]
Cc1ccnc(SCc2cc(=O)c(OC(=O)c3cccc([N+](=O)[O-])c3)co2)n1		> 79		
Cc1ccnc(SCc2cc(=O)c(OC(=O)c3ccc(C)c([N+](=O)[O-])c3)co2)n1		> 79	> 17	
Cc1ccnc(SCc2cc(=O)c(OC(=O)c3ccc(Cl)c([N+](=O)[O-])c3)co2)n1				Active
O=C(Oc1coc(CSc2ccccc2)cc1=O)c1ccc(Cl)c([N+](=O)[O-])c1	9.61	> 79	> 8	
Cc1ccnc(SCc2cc(=O)c(OCc3ccc(Cl)c([N+](=O)[O-])c3)co2)n1	> 79	> 79		
COc1cc(C(=O)Oc2coc(CSc3ncccn3)cc2=O)c([N+](=O)[O-])cc1OC	> 79	> 79		
Cc1ccnc(S(=O)(=O)Cc2cc(=O)c(OC(=O)c3ccc(Cl)c([N+](=O)[O-])c3)co2)n1	3.21	> 79	> 25	
Cc1ccnc(SCc2cc(=O)c(OC(=O)C(C)C)co2)n1	> 79	> 79		
COc1cccc(C(=O)Oc2coc(CSc3nccc(C)n3)cc2=O)c1	> 79	> 79		
Cc1cc(C)nc(SCc2cc(=O)c(O)co2)n1	> 79	> 79		
COc1ccc(SCc2cc(=O)c(OC(=O)c3ccc(Cl)c([N+](=O)[O-])c3)co2)cc1	8.27	> 79	> 9	
Cc1ccnc(SCc2cc(=O)c(OC(=O)c3ccco3)co2)n1	> 79	> 79		
Cc1ccnc(SCc2cc(=O)c(OC(=O)C(C)(C)C)co2)n1	> 79	> 79		
Cc1ccnc(SCc2cc(=O)c(OC(=O)c3cnco3)co2)n1	> 79	> 79		
Cc1ccc(SCc2cc(=O)c(OC(=O)c3ccc(Cl)c([N+](=O)[O-])c3)co2)cc1	12.8	> 79	> 6	
Cc1ccnc(SCc2cc(=O)c(NC(=O)c3ccccc3)co2)n1	> 79	> 79		
Cc1ccnc(SCc2cc(=O)c(OC(=O)c3ccc(OC(F)(F)F)cc3)co2)n1	> 79	> 79		
Cc1cccc(C(=O)Oc2coc(CSc3nccc(C)n3)cc2=O)c1	> 79	> 79		
Cc1ccnc(SCc2cc(=O)c(OC(=O)c3cccc(C#N)c3)co2)n1	> 79	> 79		
O=c1cc(CSc2ccccc2)occ1O	> 79	> 79		

Other lines, results leading:

IC50 (Apelin receptor) [µM]	IC50 [1] [µM]	Ratio IC50 [2]	Drug degradation [3]	Compound
> 79	> 79			O=C(Oc1coc(CSc2ncccn2)cc1=O)c1ccc(S(=O)(=O)N2CCCCC2)cc1
> 79	> 79			CCCCOc1ccc(C(=O)Oc2coc(CSc3ncccn3)cc2=O)cc1
	> 79			O=C(Oc1coc(CSc2ncccn2)cc1=O)c1ccc(Cl)cc1
> 79	> 79			CC(C)Oc1ccc(C(=O)Oc2coc(CSc3ncccn3)cc2=O)cc1
> 79	> 79			O=C(Oc1coc(CSc2ncccn2)cc1=O)c1ccccc1
	> 79			O=C(Oc1coc(CSc2ncccn2)cc1=O)c1ccc(C(F)(F)F)cc1
	> 79	> 23		Cc1ccnc(SCc2cc(=O)c(OC(=O)c3ccc([N+](=O)[O-])cc3)co2)n1
> 79	> 79			Cc1ccnc(SCc2cc(=O)c(OC(=O)c3ccc(F)cc3)co2)n1
> 79	> 79			CCOc1ccc(C(=O)Oc2coc(CSc3ncccn3)cc2=O)cc1
	> 79			Cc1c(C(=O)Oc2coc(CSc3ncccn3)cc2=O)cccc1[N+](=O)[O-]
	> 79	> 13		O=C(Oc1coc(CSc2ncccn2)cc1=O)c1ccc(Cl)c([N+](=O)[O-])c1
> 79	> 79			Cc1ccnc(SCc2cc(=O)c(OC(=O)c3ccc(Cl)cc3)co2)n1
> 79	> 79			Cc1ccc(C(=O)Oc2coc(CSc3ncccn3)cc2=O)cc1C
> 79	> 79			CN(C)S(=O)(=O)c1ccc(C(=O)Oc2coc(CSc3ncccn3)cc2=O)cc1
	> 79	> 11		Cc1ccc(C(=O)Oc2coc(CSc3ncccn3)cc2=O)cc1[N+](=O)[O-]
> 79	> 79			Cc1ccc(C(=O)Oc2coc(CSc3ncccn3)cc2=O)cc1
> 79	> 79			COc1ccc(C(=O)Oc2coc(CSc3nccc(C)n3)cc2=O)cc1
> 79	> 79			CC(C)(C)c1ccc(C(=O)Oc2coc(CSc3ncccn3)cc2=O)cc1
> 79	> 79			Cc1ccc(C(=O)Oc2coc(CSc3nccc(C)n3)cc2=O)cc1
	> 79			Cc1ccnc(SCc2cc(=O)c(OC(=O)c3ccc(S(=O)(=O)N4CCCC4)cc3)co2)n1
> 79	> 79			CCN(CC)S(=O)(=O)c1ccc(C(=O)Oc2coc(CSc3ncccn3)cc2=O)cc1
> 79	> 79			COc1ccc(C(=O)Oc2coc(CSc3ncccn3)cc2=O)cc1
	> 79			O=C(Oc1coc(CSc2ncccn2)cc1=O)c1ccc(Br)cc1
> 79	> 79			O=C(Oc1coc(CSc2ncccn2)cc1=O)c1ccc(F)cc1
> 79	> 79			O=C(Oc1coc(CSc2ncccn2)cc1=O)c1ccc(S(=O)(=O)N2CCCC2)cc1
	> 79			O=C(Oc1coc(CSc2ncccn2)cc1=O)c1cccc([N+](=O)[O-])c1
6.59	> 79	> 12		N#Cc1ccc(C(=O)Oc2coc(CSc3ncccn3)cc2=O)cc1
> 79	> 79			O=C(Oc1coc(CSc2ncccn2)cc1=O)c1cc(Cl)ccc1[N+](=O)[O-]
> 79	> 79			O=C(Oc1coc(CSc2ncccn2)cc1=O)c1ccc(S(=O)(=O)N2CCOCC2)cc1
> 79	> 79			O=C(Oc1coc(CSc2ncccn2)cc1=O)c1ccc(-c2ccccc2)cc1
